# Test results reported in PMC10634319 (Biochemistry, 2023).
# Experiments:
# human ABCB10 [1] = molecular target: T1, human ABCB10 (Homo sapiens, UniProt Q9NRK6); experiment: ATPase activity, malachite green phosphate assay; assay type: biochemical
# T1 sequence (Q9NRK6 152-738): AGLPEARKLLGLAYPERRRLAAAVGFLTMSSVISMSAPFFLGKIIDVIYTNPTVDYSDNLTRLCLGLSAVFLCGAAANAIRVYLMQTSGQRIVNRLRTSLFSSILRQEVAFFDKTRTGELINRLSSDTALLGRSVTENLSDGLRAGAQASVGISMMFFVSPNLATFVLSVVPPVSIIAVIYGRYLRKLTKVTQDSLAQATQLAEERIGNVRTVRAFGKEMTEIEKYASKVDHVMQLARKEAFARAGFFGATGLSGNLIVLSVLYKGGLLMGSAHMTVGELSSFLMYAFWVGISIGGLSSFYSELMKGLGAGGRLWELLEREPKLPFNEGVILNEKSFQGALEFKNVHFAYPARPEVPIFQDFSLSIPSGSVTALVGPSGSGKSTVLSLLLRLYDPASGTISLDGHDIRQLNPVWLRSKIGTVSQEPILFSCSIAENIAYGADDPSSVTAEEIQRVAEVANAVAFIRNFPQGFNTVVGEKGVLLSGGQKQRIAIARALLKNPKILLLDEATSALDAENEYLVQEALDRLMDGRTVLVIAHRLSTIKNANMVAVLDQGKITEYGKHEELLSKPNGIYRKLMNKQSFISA
# human ABCB10 [2] = molecular target: T1, human ABCB10; conditions: 0.3 μM protein, 0-2000 μM ATP, 5 mM MgCl2, 37 °C, no added lipid
IC50 (human ABCB10 [1]) [µM],SMILES,KM (human ABCB10 [2])
~10,"CCCCCCCC/C=C\CCCCCCCC(=O)OC[C@H](COP(=O)(O)OCC(O)COP(=O)(O)OC[C@@H](COC(=O)CCCCCCC/C=C\CCCCCCCC)OC(=O)CCCCCCC/C=C\CCCCCCCC)OC(=O)CCCCCCC/C=C\CCCCCCCC (some centres unmarked) [TOCDL, 1,1′,2,2′-tetraoleoyl-cardiolipin]",
,Nc1ncnc2c1ncn2[C@@H]1O[C@H](COP(=O)(O)OP(=O)(O)OP(=O)(O)O)[C@@H](O)[C@H]1O [ATP],Michaelis–Menten equation was fitted to the initial rates to determine the Michaelis constant (KM)
